Results: the supplement of paper PMC4932681

Legend:
[1] = test system: BT-474 Tam1; assay: drug sensitivity score (DSS) (DSS (dimensionless)); higher = more sensitive; extreme values may be limits of the assay; details: 4-OH-tamoxifen in medium 1 µM; 72 h
Summary of the method: (§1)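 After seeding into 384-well plates with library drugs at five concentrations spanning a 10 000-fold range, breast cancer cell lines and their resistant derivatives were incubated 72 h at 37 °C. Resistant lines received medium with 1 μM of the selecting drug. CellTiter-Glo signal was read on a PHERAstar and scaled to vehicle-only and positive controls. Drug sensitivity score, relative IC50 (the curve midpoint) and top-dose inhibition came from logistic fits run in the Breeze pipeline.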

[2] = test system: BT-474 Tam2; assay: as above; details: 4-OH-tamoxifen in medium 1 µM; 72 h
Summary of the method: as §1

[3] = test system: BT-474; assay: as above; details: 72 h
Summary of the method: as §1

[4] = test system: MCF-7 Tam1; assay: as above; details: 4-OH-tamoxifen in medium 1 µM; 72 h
Summary of the method: as §1

[5] = test system: MCF-7; assay: as above; details: 72 h
Summary of the method: as §1

[6] = test system: T-47D Tam1; assay: as above; details: 4-OH-tamoxifen in medium 1 µM; 72 h
Summary of the method: as §1

[7] = test system: T-47D Tam2; assay: as above; details: 4-OH-tamoxifen in medium 1 µM; 72 h
Summary of the method: as §1

[8] = test system: T-47D; assay: as above; details: 72 h
Summary of the method: as §1

[9] = test system: ZR-75-1 Tam1; assay: as above; details: 4-OH-tamoxifen in medium 1 µM; 72 h
Summary of the method: as §1

[10] = test system: ZR-75-1 Tam2; assay: as above; details: 4-OH-tamoxifen in medium 1 µM; 72 h
Summary of the method: as §1

[11] = test system: ZR-75-1; assay: as above; details: 72 h
Summary of the method: as §1

[12] = test system: BT-474 Tam1; assay: relative IC50 (midpoint of fitted logistic curve, plateau may be below 50% inhibition; CellTiter-Glo viability); higher = less potent; details: 4-OH-tamoxifen in medium 1 µM; 72 h
Summary of the method: as §1

[13] = test system: BT-474 Tam2; assay: as above; details: 4-OH-tamoxifen in medium 1 µM; 72 h
Summary of the method: as §1

[14] = test system: BT-474; assay: as above; details: 72 h
Summary of the method: as §1

[15] = test system: MCF-7 Tam1; assay: as above; details: 4-OH-tamoxifen in medium 1 µM; 72 h
Summary of the method: as §1

[16] = test system: MCF-7; assay: as above; details: 72 h
Summary of the method: as §1

[17] = test system: T-47D Tam1; assay: as above; details: 4-OH-tamoxifen in medium 1 µM; 72 h
Summary of the method: as §1

[18] = test system: T-47D Tam2; assay: as above; details: 4-OH-tamoxifen in medium 1 µM; 72 h
Summary of the method: as §1

[19] = test system: T-47D; assay: as above; details: 72 h
Summary of the method: as §1

[20] = test system: ZR-75-1 Tam1; assay: as above; details: 4-OH-tamoxifen in medium 1 µM; 72 h
Summary of the method: as §1

[21] = test system: ZR-75-1 Tam2; assay: as above; details: 4-OH-tamoxifen in medium 1 µM; 72 h
Summary of the method: as §1

[22] = test system: ZR-75-1; assay: as above; details: 72 h
Summary of the method: as §1

relative IC50 [12]	relative IC50 [13]	relative IC50 ([14]; 4-OH-tamoxifen in medium 0 µM)	relative IC50 ([14]; 4-OH-tamoxifen in medium 1 µM)	relative IC50 [15]	relative IC50 ([16]; 4-OH-tamoxifen in medium 0 µM)	relative IC50 ([16]; 4-OH-tamoxifen in medium 1 µM)	relative IC50 [17]	relative IC50 [18]	relative IC50 ([19]; 4-OH-tamoxifen in medium 0 µM)	relative IC50 ([19]; 4-OH-tamoxifen in medium 1 µM)	SMILES	drug sensitivity score [1]	drug sensitivity score [2]	drug sensitivity score ([3]; 4-OH-tamoxifen in medium 0 µM)	drug sensitivity score ([3]; 4-OH-tamoxifen in medium 1 µM)	drug sensitivity score [4]	drug sensitivity score ([5]; 4-OH-tamoxifen in medium 0 µM)	drug sensitivity score ([5]; 4-OH-tamoxifen in medium 1 µM)	drug sensitivity score [6]	drug sensitivity score [7]	drug sensitivity score ([8]; 4-OH-tamoxifen in medium 0 µM)	drug sensitivity score ([8]; 4-OH-tamoxifen in medium 1 µM)	drug sensitivity score [9]	drug sensitivity score [10]	drug sensitivity score ([11]; 4-OH-tamoxifen in medium 0 µM)	drug sensitivity score ([11]; 4-OH-tamoxifen in medium 1 µM)	relative IC50 [20]	relative IC50 [21]	relative IC50 ([22]; 4-OH-tamoxifen in medium 0 µM)	relative IC50 ([22]; 4-OH-tamoxifen in medium 1 µM)
19.1 µM	> 50 µM	> 50 µM	17.3 µM	> 50 µM	7 µM	> 50 µM	8.36 µM	13.8 µM	20 µM	30.1 µM	C[C@@H]1C=C2C(=O)O[C@@H]3CC[C@H](C1)[C@]23O [Galiellalactone]	2.19	0	0	2.65	0	6.75	0.391	3.53	2.32	2.52	1.56	0	0	0	0	> 50 µM	> 50 µM	> 50 µM	> 50 µM
1.25 µM	0.494 µM	0.563 µM	0.518 µM	1.91 µM	2.79 µM	0.943 µM	0.235 µM	1.34 µM	2.95 µM	3.59 µM	COC1=C2C[C@@H](C)C[C@H](OC)[C@H](O)[C@@H](C)/C=C(\C)[C@H](OC(N)=O)[C@@H](OC)/C=C\C=C(/C)C(=O)NC(=CC1=O)C2=O [Geldanamycin]	8.85	12.9	9.69	10.8	4.81	5.35	9.55	14.8	6.85	4.34	3.67	7.66	6.52	6.31	9.2	1.12 µM	1.44 µM	1.34 µM	1.07 µM
0.394 µM	0.371 µM	0.309 µM	0.349 µM	0.331 µM	0.191 µM	0.187 µM	0.123 µM	0.313 µM	0.0974 µM	0.329 µM	CC(=O)[C@]1(O)Cc2c(O)c3c(c(O)c2[C@@H](O[C@H]2C[C@H](N)[C@H](O)[C@H](C)O2)C1)C(=O)c1ccccc1C3=O [Idarubicin]	3.94	3.03	4.38	4.91	1.86	6.65	5.56	8.94	2.4	8.26	3.11	5.45	7.63	6.29	5.81	0.127 µM	0.086 µM	0.12 µM	0.111 µM

The next lines start with the molecule.

SMILES	relative IC50 [12]	relative IC50 [13]	relative IC50 ([14]; 4-OH-tamoxifen in medium 0 µM)	relative IC50 ([14]; 4-OH-tamoxifen in medium 1 µM)	relative IC50 [15]	relative IC50 ([16]; 4-OH-tamoxifen in medium 0 µM)	relative IC50 ([16]; 4-OH-tamoxifen in medium 1 µM)	relative IC50 [17]	relative IC50 [18]	relative IC50 ([19]; 4-OH-tamoxifen in medium 0 µM)	relative IC50 ([19]; 4-OH-tamoxifen in medium 1 µM)	drug sensitivity score [1]	drug sensitivity score [2]	drug sensitivity score ([3]; 4-OH-tamoxifen in medium 0 µM)	drug sensitivity score ([3]; 4-OH-tamoxifen in medium 1 µM)	drug sensitivity score [4]	drug sensitivity score ([5]; 4-OH-tamoxifen in medium 0 µM)	drug sensitivity score ([5]; 4-OH-tamoxifen in medium 1 µM)	drug sensitivity score [6]	drug sensitivity score [7]	drug sensitivity score ([8]; 4-OH-tamoxifen in medium 0 µM)	drug sensitivity score ([8]; 4-OH-tamoxifen in medium 1 µM)	drug sensitivity score [9]	drug sensitivity score [10]	drug sensitivity score ([11]; 4-OH-tamoxifen in medium 0 µM)	drug sensitivity score ([11]; 4-OH-tamoxifen in medium 1 µM)	relative IC50 [20]	relative IC50 [21]	relative IC50 ([22]; 4-OH-tamoxifen in medium 0 µM)	relative IC50 ([22]; 4-OH-tamoxifen in medium 1 µM)
NC(=O)NO [Hydroxyurea]	> 100 µM	> 100 µM	> 100 µM		> 100 µM	> 100 µM		> 100 µM	> 100 µM	> 100 µM	> 100 µM	0	0	0	0.154	0	0	0	0	0	0	0	0	0	0	0	> 100 µM	> 100 µM	> 100 µM	> 100 µM
CC(C)n1nc(-c2ccc3oc(N)nc3c2)c2c(N)ncnc21 [INK128]	0.0209 µM	0.0302 µM	0.0275 µM	0.0471 µM	0.0114 µM	0.00736 µM	0.00762 µM	0.00291 µM	0.00749 µM	0.0116 µM	0.0119 µM	13.2	7.32	5.72	9.54	7.07	18.9	13.6	16.9	8.98	15.4	8.51	15.1	17.5	16.1	13.6	0.00481 µM	0.00649 µM	0.00613 µM	0.00656 µM
O=P(O)(NCCCl)NCCCl [Ifosfamide mustard]	> 10 µM	> 10 µM	> 10 µM	> 10 µM	> 10 µM	> 10 µM	> 10 µM	> 10 µM	> 10 µM	> 10 µM	> 10 µM	0	0	0	0	0	0	0	0	0	0	0	0	0	0	0	> 10 µM	> 10 µM	> 10 µM	> 10 µM
O=P1(NCCCl)OCCCN1CCCl (configuration not stated) [Ifosfamide]	> 10 µM	> 10 µM	> 10 µM	> 10 µM	> 10 µM	> 10 µM		> 10 µM	> 10 µM	> 10 µM	> 10 µM	0	0	0	0	0	0	0.24	0	0	0	0	0	0	0	0	> 10 µM	> 10 µM	> 10 µM	> 10 µM
